# Assay results as given in patent publication US9656988B2 (Pharmacyclics LLC, priority 2013, dated 2017).
# Target: BTK (Homo sapiens (Human), UniProt Q06187)
# Test: Btk in vitro inhibitory activity (one of Method A TR-FRET, Method B electrophoretic mobility shift, Method C radiometric filter binding)
# Type: biochemical
# Settings: Btk (IC50)
# Sequence of BTK (Q06187 whole entry): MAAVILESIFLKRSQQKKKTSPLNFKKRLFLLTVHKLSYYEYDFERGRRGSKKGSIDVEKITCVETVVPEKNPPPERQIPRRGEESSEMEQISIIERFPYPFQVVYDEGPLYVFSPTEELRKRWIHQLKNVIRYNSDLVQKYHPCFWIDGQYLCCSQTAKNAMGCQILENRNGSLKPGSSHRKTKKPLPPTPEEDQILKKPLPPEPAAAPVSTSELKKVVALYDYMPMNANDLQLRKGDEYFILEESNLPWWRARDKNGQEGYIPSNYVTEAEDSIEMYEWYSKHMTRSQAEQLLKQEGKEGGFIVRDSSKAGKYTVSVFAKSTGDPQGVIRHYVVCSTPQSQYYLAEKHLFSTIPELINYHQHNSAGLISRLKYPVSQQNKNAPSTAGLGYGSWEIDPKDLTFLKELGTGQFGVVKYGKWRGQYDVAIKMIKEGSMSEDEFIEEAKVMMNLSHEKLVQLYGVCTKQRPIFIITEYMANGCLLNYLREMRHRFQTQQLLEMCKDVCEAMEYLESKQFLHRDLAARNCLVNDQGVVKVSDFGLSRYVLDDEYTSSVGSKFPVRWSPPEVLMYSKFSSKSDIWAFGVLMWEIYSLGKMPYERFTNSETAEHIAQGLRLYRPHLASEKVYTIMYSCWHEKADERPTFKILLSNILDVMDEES
row,IC50,Compound
1,10 to 100 nM,"CN(C)C(=O)N1CC[C@@H]2CCN(c3cnc(C(N)=O)c(Nc4ccc(C5CCN(C6CCCC6)CC5)cc4)n3)C[C@@H]21 (racemic) [Example 292, (3aS,7aR)-6-(5-carbamoyl-6-(4-(1-cyclopentylpiperidin-4-yl)phenylamino)pyrazin-2-yl)-N,N-dimethyloctahydro-1H-pyrrolo[2,3-c]pyridine-1-carboxamide]"

# Same assay, conditions: determined using one of the methods of Example 355a, 355b and 355c; read-out: BTK IC50
row,Compound,IC50
1,"CN(C)C(=O)N1CC[C@@H]2[C@H]1CCCN2c1cnc(C(N)=O)c(Nc2ccc(C3CCN(C4CCCC4)CC3)cc2)n1 (racemic) [Example 287, (3aR,7aR)-4-(5-carbamoyl-6-(4-(1-cyclopentylpiperidin-4-yl)phenylamino)pyrazin-2-yl)-N,N-dimethyloctahydro-1H-pyrrolo[3,2-b]pyridine-1-carboxamide]",10 to 100 nM
2,"NC(=O)c1ncc(N2CCC[C@@H]3[C@H]2CCN3C(=O)C2CC2)nc1Nc1ccc(C2CCN(C3CCCC3)CC2)cc1 (racemic) [Example 288, 3-(4-(1-cyclopentylpiperidin-4-yl)phenylamino)-5-((3aR,7aR)-1-(cyclopropanecarbonyl)dihydro-1H-pyrrolo[3,2-b]pyridin-4(2H,5H,6H,7H,7aH)-yl)pyrazine-2-carboxamide]",10 to 100 nM
3,NC(=O)c1ncc(N2CC[C@H]3CCN[C@H]3C2)nc1Nc1ccc(C2CCN(C3CCCC3)CC2)cc1 (racemic) [Example 291],100 to 1000 nM
4,"CN(C)C(=O)N1CC[C@@H]2CCN(c3cnc(C(N)=O)c(Nc4ccc(C5CCN(C6CCCC6)CC5)cc4)n3)C[C@@H]21 (racemic) [Example 292, (3aS,7aR)-6-(5-carbamoyl-6-(4-(1-cyclopentylpiperidin-4-yl)phenylamino)pyrazin-2-yl)-N,N-dimethyloctahydro-1H-pyrrolo[2,3-c]pyridine-1-carboxamide]",10 to 100 nM
5,"NC(=O)c1ncc(N2CC[C@H]3CCN(C(=O)C4CC4)[C@H]3C2)nc1Nc1ccc(C2CCN(C3CCCC3)CC2)cc1 (racemic) [Example 293, 3-(4-(1-cyclopentylpiperidin-4-yl)phenylamino)-5-((3aS,7aR)-1-(cyclopropanecarbonyl)tetrahydro-1H-pyrrolo[2,3-c]pyridin-6(2H,7H,7aH)-yl)pyrazine-2-carboxamide]",10 to 100 nM
6,"CC1[C@H](NC(=O)C2CC2)CCCN1c1cnc(C(N)=O)c(Nc2ccc(C3CCN(C4CCCC4)CC3)cc2)n1 (stereo in doubt) [Example 349, (R)-3-(4-(1-cyclopentylpiperidin-4-yl)phenylamino)-5-(3-(cyclopropanecarboxamido)-2-methylpiperidin-1-yl)pyrazine-2-carboxamide]",< 10 nM
7,"CN(C(=O)c1ccc(C(C)(C)C)cc1)[C@@H]1CCCN(c2nnc(C(N)=O)c(Nc3ccc(C(=O)N4CCOCC4)cc3)n2)C1 [Example 3, (R)-3-(3-(4-tert-butyl-N-methylbenzamido)piperidin-1-yl)-5-(4-(morpholine-4-carbonyl)phenylamino)-1,2,4-triazine-6-carboxamide]",10 to 100 nM
8,"Cc1ccc(C(=O)N[C@@H]2CCCN(c3nnc(C(N)=O)c(Nc4ccc(C(=O)N5CCOCC5)cc4)n3)C2)cc1 [Example 4, (R)-3-(3-(4-methylbenzamido)piperidin-1-yl)-5-(4-(morpholine-4-carbonyl)phenylamino)-1,2,4-triazine-6-carboxamide]",< 10 nM
9,"NC(=O)c1nnc(N2CCC[C@@H](NC(=O)c3ccccc3)C2)nc1Nc1ccc(C(=O)N2CCOCC2)cc1 [Example 5, (R)-3-(3-benzamidopiperidin-1-yl)-5-(4-(morpholine-4-carbonyl)phenylamino)-1,2,4-triazine-6-carboxamide]",< 10 nM
10,"NC(=O)c1nnc(N2CCC[C@@H](NC(=O)c3ccc(C(F)(F)F)cc3)C2)nc1Nc1ccc(C(=O)N2CCOCC2)cc1 [Example 6, (R)-5-(4-(morpholine-4-carbonyl)phenylamino)-3-(3-(4-(trifluoromethyl)benzamido)piperidin-1-yl)-1,2,4-triazine-6-carboxamide]",< 10 nM
11,"N#Cc1ccc(C(=O)N[C@@H]2CCCN(c3nnc(C(N)=O)c(Nc4ccc(C(=O)N5CCOCC5)cc4)n3)C2)cc1 [Example 7, (R)-3-(3-(4-cyanobenzamido)piperidin-1-yl)-5-(4-(morpholine-4-carbonyl)phenylamino)-1,2,4-triazine-6-carboxamide]",10 to 100 nM
12,"NC(=O)c1nnc(N2CCC[C@@H](NC(=O)c3ccc(Cl)cc3)C2)nc1Nc1ccc(C(=O)N2CCOCC2)cc1 [Example 8, (R)-3-(3-(4-chlorobenzamido)piperidin-1-yl)-5-(4-(morpholine-4-carbonyl)phenylamino)-1,2,4-triazine-6-carboxamide]",< 10 nM
13,"NC(=O)c1nnc(N2CCC[C@@H](NC(=O)c3ccc(F)cc3)C2)nc1Nc1ccc(C(=O)N2CCOCC2)cc1 [Example 9, (R)-3-(3-(4-fluorobenzamido)piperidin-1-yl)-5-(4-(morpholine-4-carbonyl)phenylamino)-1,2,4-triazine-6-carboxamide]",< 10 nM
14,"COc1ccc(C(=O)N[C@@H]2CCCN(c3nnc(C(N)=O)c(Nc4ccc(C(=O)N5CCOCC5)cc4)n3)C2)cc1 [Example 10, (R)-3-(3-(4-methoxybenzamido)piperidin-1-yl)-5-(4-(morpholine-4-carbonyl)phenylamino)-1,2,4-triazine-6-carboxamide]",< 10 nM
15,"NC(=O)c1nnc(N2CCC[C@@H](NC(=O)c3ccc(C4CC4)cc3)C2)nc1Nc1ccc(C(=O)N2CCOCC2)cc1 [Example 11, (R)-3-(3-(4-cyclopropylbenzamido)piperidin-1-yl)-5-(4-(morpholine-4-carbonyl)phenylamino)-1,2,4-triazine-6-carboxamide]",< 10 nM
16,"NC(=O)c1nnc(N2CCC[C@@H](NC(=O)c3ccccn3)C2)nc1Nc1ccc(C(=O)N2CCOCC2)cc1 [Example 12, (R)-5-(4-(morpholine-4-carbonyl)phenylamino)-3-(3-(picolinamido)piperidin-1-yl)-1,2,4-triazine-6-carboxamide]",< 10 nM
17,"NC(=O)c1nnc(N2CCC[C@@H](NC(=O)c3cccnc3)C2)nc1Nc1ccc(C(=O)N2CCOCC2)cc1 [Example 13, (R)-5-(4-(morpholine-4-carbonyl)phenylamino)-3-(3-(nicotinamido)piperidin-1-yl)-1,2,4-triazine-6-carboxamide]",10 to 100 nM
18,"NC(=O)c1nnc(N2CCC[C@@H](NC(=O)c3ccncc3)C2)nc1Nc1ccc(C(=O)N2CCOCC2)cc1 [Example 14, (R)-3-(3-(isonicotinamido)piperidin-1-yl)-5-(4-(morpholine-4-carbonyl)phenylamino)-1,2,4-triazine-6-carboxamide]",< 10 nM
19,"NC(=O)c1nnc(N2CCC[C@@H](NC(=O)c3ncccn3)C2)nc1Nc1ccc(C(=O)N2CCOCC2)cc1 [Example 15, (R)-5-(4-(morpholine-4-carbonyl)phenylamino)-3-(3-(pyrimidine-2-carboxamido)piperidin-1-yl)-1,2,4-triazine-6-carboxamide]",10 to 100 nM
20,"NC(=O)c1nnc(N2CCC[C@@H](NC(=O)c3nccs3)C2)nc1Nc1ccc(C(=O)N2CCOCC2)cc1 [Example 16, (R)—N-(1-(6-carbamoyl-5-(4-(morpholine-4-carbonyl)phenylamino)-1,2,4-triazin-3-yl)piperidin-3-yl)thiazole-2-carboxamide]",< 10 nM
21,"NC(=O)c1nnc(N2CCC[C@@H](NC(=O)c3ccc(Cl)s3)C2)nc1Nc1ccc(C(=O)N2CCOCC2)cc1 [Example 17, (R)-3-(3-(5-chlorothiophene-2-carboxamido)piperidin-1-yl)-5-(4-(morpholine-4-carbonyl)phenylamino)-1,2,4-triazine-6-carboxamide]",< 10 nM

# Same assay, conditions: read-out: Btk (IC50)
row,IC50,Compound
1,10 to 100 nM,"CN(C)C(=O)N1CC[C@@H]2[C@H]1CCCN2c1cnc(C(N)=O)c(Nc2ccc(C3CCN(C4CCCC4)CC3)cc2)n1 (racemic) [Example 287, (3aR,7aR)-4-(5-carbamoyl-6-(4-(1-cyclopentylpiperidin-4-yl)phenylamino)pyrazin-2-yl)-N,N-dimethyloctahydro-1H-pyrrolo[3,2-b]pyridine-1-carboxamide]"
2,10 to 100 nM,"NC(=O)c1ncc(N2CCC[C@@H]3[C@H]2CCN3C(=O)C2CC2)nc1Nc1ccc(C2CCN(C3CCCC3)CC2)cc1 (racemic) [Example 288, 3-(4-(1-cyclopentylpiperidin-4-yl)phenylamino)-5-((3aR,7aR)-1-(cyclopropanecarbonyl)dihydro-1H-pyrrolo[3,2-b]pyridin-4(2H,5H,6H,7H,7aH)-yl)pyrazine-2-carboxamide]"
3,10 to 100 nM,"NC(=O)c1ncc(N2CC[C@H]3CCN(C(=O)C4CC4)[C@H]3C2)nc1Nc1ccc(C2CCN(C3CCCC3)CC2)cc1 (racemic) [Example 293, 3-(4-(1-cyclopentylpiperidin-4-yl)phenylamino)-5-((3aS,7aR)-1-(cyclopropanecarbonyl)tetrahydro-1H-pyrrolo[2,3-c]pyridin-6(2H,7H,7aH)-yl)pyrazine-2-carboxamide]"
